These results are taken from patent publication US20170143661A1 (priority 2015, published 2017).

Structures are written as SMILES.

What all share (set-up): species or system broiler birds
Holding throughout (conditions): in vivo

Assay [1] has as its system Newcastle disease virus, NDV.
In assay [2] the test system is Interleukin-6 (IL-6).
Assay [3] concerns Newcastle disease virus, NDV. This is another data set of the same source.
Assay [4] has as its system Newcastle disease virus, NDV. This is another data set of the same source.
Assay [5] concerns Interferon-γ (IFN-γ).
Assay [6] relates to Newcastle disease virus, NDV. This is another data set of the same source.

For the compound `CCC(=O)[O-].CCC(=O)[O-].CCC(=O)[O-].[Cr+3]` [chromium propionate], the “serum antibody titers (HI)” value in assay [1] was “enhanced significantly”. Further, in assay [2], the “post-challenge responses (serum cytokine)” value is given as “increasing trend” and the “serum Interleukin-6 (IL-6) levels” value is listed as “Significantly higher”. In assay [3], the daily mortality percentages result is listed as “lower”, the “mortality by day 15 post-challenge” value came out at 100% and the onset of mortality entry is recorded as “delayed”. The “mean viral titer in different organs” value in assay [4] is on record as “lower as compared to the control”. For the same compound, the “serum Interferon-γ (IFN-γ) levels” value in assay [5] is listed as “Significantly higher”. The “serum antibody titers (ELISA)” value in assay [6] is given as “enhanced significantly”.
